We go through 18 compounds from US9670227B2, “Thienopyrimidine derivatives, a process for their preparation and pharmaceutical compositions containing them” (LES LABORATOIRES SERVIER, priority 2013, dated 2017).

In one test the target is Mcl-1 protein (UniProtKB primary accession number: Q07820) (Homo sapiens, UniProt Q07820). Briefly: Inhibition of Mcl-1 by fluorescence polarisation, Method 1. The format is binding. The conditions noted are these: read-out: IC50 (M) Mcl-1 FP. The procedure, abridged: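 Compounds were tested as 11-point serial dilutions at 5% final DMSO against 5 nM Mcl-1 with 1 nM fluorescein-labelled ligand in 10 mM HEPES, 150 mM NaCl, 0.05% Tween 20, pH 7.4. Relative binding potency was read by fluorescence polarisation.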
Mcl-1 protein, sequence (Q07820 whole entry): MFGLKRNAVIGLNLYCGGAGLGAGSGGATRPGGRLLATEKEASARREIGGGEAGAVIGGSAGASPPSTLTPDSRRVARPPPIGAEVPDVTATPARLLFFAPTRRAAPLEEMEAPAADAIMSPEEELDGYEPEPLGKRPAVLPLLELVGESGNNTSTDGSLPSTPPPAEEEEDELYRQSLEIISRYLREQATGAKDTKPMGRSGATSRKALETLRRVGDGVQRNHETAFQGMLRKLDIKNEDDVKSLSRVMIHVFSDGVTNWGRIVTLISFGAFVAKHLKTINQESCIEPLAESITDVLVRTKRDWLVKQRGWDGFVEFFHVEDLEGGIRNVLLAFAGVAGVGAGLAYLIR

Test [1] has as its system H929 multiple myeloma tumour line. Briefly: In vitro cytotoxicity, Microculture Tetrazolium Assay. As to conditions: H929 cells, 48 hours exposure, MTT, read-out: IC50 (μM) MTT H929. The format is cell-based. On the procedure: The cytotoxicity studies were carried out on the H929 multiple myeloma tumour line.
The cells are distributed onto microplates and exposed to the test compounds for 48 hours.

Setting [2] is: fluorescence polarisation test, Method 2 values are underlined in the patent (underlining not visible here).
The mark [3] stands for this setting: fluorescence polarisation, Method 1, or Method 2.

Like-named read-outs stand apart in the source and are kept apart here.

In the case of `Cc1c(-c2c(-c3ccc(F)cc3)sc3ncnc(OC(Cc4ccccc4OCc4ccnc(N5CCN(C)CC5)n4)C(=O)O)c23)ccc(OCCN2CCN(C)CC2)c1Cl` [Example 50, (2R)-2-{[(5Sa)-5-{3-chloro-2-methyl-4-[2-(4-methylpiperazin-1-yl)ethoxy]phenyl}-6-(4-fluorophenyl)thieno[2,3-d]pyrimidin-4-yl]oxy}-3-(2-{[2-(4-methylpiperazin-1-yl)pyrimidin-4-yl]methoxy}phenyl)propanoic acid], the IC50 worked out at 7.6e-09 M at Mcl-1 protein (setting [2]) and 0.076 µM in test [1] (Homo sapiens, NCI-H929, 48 h).

Consider `COc1ccccc1CC(Oc1ncnc2sc(-c3cc(F)c(F)c(F)c3F)c(-c3ccc(OCCN4CCN(C)CC4)c(Cl)c3C)c12)C(=O)O` [Example 525, (2R)-2-{[(5Sa)-5-{3-chloro-2-methyl-4-[2-(4-methylpiperazin-1-yl)ethoxy]phenyl}-6-(2,3,4,5-tetrafluorophenyl)thieno[2,3-d]pyrimidin-4-yl]oxy}-3-(2-methoxyphenyl)propanoic acid], for which the half-maximal inhibitory concentration (IC50) at Mcl-1 protein (setting [3]) came to 3.3e-09 M; in test [1] (Homo sapiens, NCI-H929, 48 h), 0.755 µM.

For `Cc1c(-c2c(-c3ccc(F)cc3)sc3ncnc(OC(Cc4ccccc4OCc4ccnc(Cl)c4)C(=O)O)c23)ccc(OCCN2CCN(C)CC2)c1Cl` [Example 19, (2R)-2-{[(5Sa)-5-{3-chloro-2-methyl-4-[2-(4-methylpiperazin-1-yl)ethoxy]phenyl}-6-(4-fluorophenyl)thieno[2,3-d]pyrimidin-4-yl]oxy}-3-{2-[(2-chloropyridin-4-yl)methoxy]phenyl}propanoic acid], the concentration for half-maximal inhibition (IC50) stood at 4.4e-09 M at Mcl-1 protein (setting [2]) and 0.064 µM in test [1] (Homo sapiens, NCI-H929, 48 h).

With `COc1ccc(-c2nccc(COc3ccccc3CC(Oc3ncnc4sc(-c5ccc(F)cc5)c(-c5ccc(OCCN6CCN(C)CC6)c(Cl)c5C)c34)C(=O)O)n2)cn1` [Example 111, (2R)-2-{[(5Sa)-5-{3-chloro-2-methyl-4-[2-(4-methylpiperazin-1-yl)ethoxy]phenyl}-6-(4-fluorophenyl)thieno[2,3-d]pyrimidin-4-yl]oxy}-3-(2-{[2-(6-methoxypyridin-3-yl)pyrimidin-4-yl]methoxy}phenyl)propanoic acid], the IC50 at Mcl-1 protein (setting [2]) turned out to be 3.3e-09 M; in test [1] (Homo sapiens, NCI-H929, 48 h) it was 0.008 µM.

As to `COc1ccccc1CC(Oc1ncnc2sc(-c3cccc4occc34)c(-c3ccc(OCCN4CCN(C)CC4)c(Cl)c3C)c12)C(=O)O` [Example 563, (2R)-2-{[6-(1-benzofuran-4-yl)-(5Sa)-5-{3-chloro-2-methyl-4-[2-(4-methylpiperazin-1-yl)ethoxy]phenyl}thieno[2,3-d]pyrimidin-4-yl]oxy}-3-(2-methoxyphenyl)propanoic acid], the 50% inhibitory concentration (IC50) on Mcl-1 protein (setting [3]) is 7.4e-08 M; in test [1] (Homo sapiens, NCI-H929, 48 h) it was 1.16 µM.

Turning to `COCCOCCOCCOc1ccccc1CC(Oc1ncnc2sc(-c3ccc(F)o3)c(-c3ccc(OCCN4CCN(C)CC4)c(Cl)c3C)c12)C(=O)O` [Example 197, (2R)-2-{[(5Sa)-5-{3-chloro-2-methyl-4-[2-(4-methylpiperazin-1-yl)ethoxy]phenyl}-6-(5-fluorofuran-2-yl)thieno[2,3-d]pyrimidin-4-yl]oxy}-3-(2-{2-[2-(2-methoxyethoxy)ethoxy]ethoxy}phenyl)propanoic acid], the IC50 on Mcl-1 protein (setting [2]) stood at 5.4e-09 M; in test [1] (Homo sapiens, NCI-H929, 48 h) it was 0.07 µM.

Consider `Cc1c(-c2c(-c3ccc(F)o3)sc3ncnc(OC(Cc4ccc(F)cc4OCc4cnccn4)C(=O)O)c23)ccc(OCCN2CCN(C)CC2)c1Cl` [Example 691, (2R)-2-{[(5Sa)-5-{3-chloro-2-methyl-4-[2-(4-methylpiperazin-1-yl)ethoxy]phenyl}-6-(5-fluorofuran-2-yl)thieno[2,3-d]pyrimidin-4-yl]oxy}-3-[4-fluoro-2-(pyrazin-2-ylmethoxy)phenyl]propanoic acid], for which the IC50 at Mcl-1 protein (setting [3]) was found to be 9.6e-09 M; in test [1] (Homo sapiens, NCI-H929, 48 h), 0.037 µM.

As for `Cc1c(-c2c(-c3ccc(F)cc3)sc3ncnc(OC(Cc4ccccc4OCc4ccnn4CC4CCCCC4)C(=O)O)c23)ccc(OCCN2CCN(C)CC2)c1Cl` [Example 80, (2R)-2-{[(5Sa)-5-{3-chloro-2-methyl-4-[2-(4-methylpiperazin-1-yl)ethoxy]phenyl}-6-(4-fluorophenyl)thieno[2,3-d]pyrimidin-4-yl]oxy}-3-(2-{[1-(cyclohexylmethyl)-1H-pyrazol-5-yl]methoxy}phenyl)propanoic acid], the concentration for half-maximal inhibition (IC50) on Mcl-1 protein (setting [2]) is 4.5e-09 M; in test [1] (Homo sapiens, NCI-H929, 48 h) it was 0.035 µM.

For `Cc1c(-c2c(-c3ccc(F)cc3)sc3ncnc(OC(Cc4ccccc4OCc4ccnn4CCN(C)C)C(=O)O)c23)ccc(OCCN2CCN(C)CC2)c1Cl` [Example 87, (2R)-2-{[(5Sa)-5-{3-chloro-2-methyl-4-[2-(4-methylpiperazin-1-yl)ethoxy]phenyl}-6-(4-fluorophenyl)thieno[2,3-d]pyrimidin-4-yl]oxy}-3-[2-({1-[2-(dimethylamino)ethyl]-1H-pyrazol-5-yl}methoxy)phenyl]propanoic acid], the IC50 stood at 7e-09 M on Mcl-1 protein (setting [2]) and 0.274 µM in test [1] (Homo sapiens, NCI-H929, 48 h).

In the case of `CCc1sc2ncnc(OC(Cc3ccccc3)C(=O)O)c2c1-c1ccc(OCCCN(C)C)c(Cl)c1C` [Example 400, (2R)-2-[((5Sa)-5-{3-chloro-4-[3-(dimethylamino)propoxy]-2-methylphenyl}-6-ethylthieno[2,3-d]pyrimidin-4-yl)oxy]-3-phenylpropanoic acid], the IC50 was 8.4e-08 M at Mcl-1 protein (setting [3]) and 14.4 µM in test [1] (Homo sapiens, NCI-H929, 48 h).

Turning to `Cc1c(-c2c(-c3ccc(F)cc3)sc3ncnc(OC(Cc4ccccc4OCc4ccnc(-c5ccnc(Cl)c5)n4)C(=O)O)c23)ccc(OCCN2CCN(C)CC2)c1Cl` [Example 119, (2R)-2-{[(5Sa)-5-{3-chloro-2-methyl-4-[2-(4-methylpiperazin-1-yl)ethoxy]phenyl}-6-(4-fluorophenyl)thieno[2,3-d]pyrimidin-4-yl]oxy}-3-(2-{[2-(2-chloropyridin-4-yl)pyrimidin-4-yl]methoxy}phenyl)propanoic acid], the IC50 on Mcl-1 protein (setting [2]) was determined as 4.8e-09 M; in test [1] (Homo sapiens, NCI-H929, 48 h), 0.02 µM.

With `COc1ccccc1-c1nccc(COc2ccccc2CC(Oc2ncnc3sc(-c4ccc(OCc5ccc(C)cc5)cc4)c(-c4ccc(OCCN5CCN(C)CC5)c(Cl)c4C)c23)C(=O)O)n1` [Example 768, (2R)-2-[((5Sa)-5-{3-chloro-2-methyl-4-[2-(4-methylpiperazin-1-yl)ethoxy]phenyl}-6-{4-[(4-methylbenzyl)oxy]phenyl}thieno[2,3-d]pyrimidin-4-yl)oxy]-3-(2-{[2-(2-methoxyphenyl)pyrimidin-4-yl]methoxy}phenyl)propanoic acid], the half-maximal inhibitory concentration (IC50) worked out at 1.04e-09 M on Mcl-1 protein (setting [3]) and 0.039 µM in test [1] (Homo sapiens, NCI-H929, 48 h).

Regarding `CCc1sc2ncnc(OC(Cc3ccccc3OCc3ccnc(OC)n3)C(=O)O)c2c1-c1ccc(OCCN2CCN(C)CC2)c(Cl)c1C` [Example 455, (2R)-2-[((5Sa)-5-{3-chloro-2-methyl-4-[2-(4-methylpiperazin-1-yl)ethoxy]phenyl}-6-ethylthieno[2,3-d]pyrimidin-4-yl)oxy]-3-{2-[(2-methoxypyrimidin-4-yl)methoxy]phenyl}propanoic acid], the IC50 came out at 6.2e-09 M at Mcl-1 protein (setting [3]) and 0.339 µM in test [1] (Homo sapiens, NCI-H929, 48 h).

Regarding `CCc1sc2ncnc(OC(Cc3ccccc3)C(=O)O)c2c1-c1ccc(OCCN2CCNC2=O)c(Cl)c1C` [Example 419, (2R)-2-[((5Sa)-5-{3-chloro-2-methyl-4-[2-(2-oxoimidazolidin-1-yl)ethoxy]phenyl}-6-ethylthieno[2,3-d]pyrimidin-4-yl)oxy]-3-phenylpropanoic acid], the IC50 at Mcl-1 protein (setting [3]) is 3.4e-08 M; in test [1] (Homo sapiens, NCI-H929, 48 h), 21.5 µM.

`Cc1c(-c2c(-c3ccco3)sc3ncnc(O[C@H](Cc4ccccc4OCc4cc(-c5ccccc5)ncn4)C(=O)O)c23)ccc(OCCN2CCN(C)CC2)c1Cl` [Example 224, (2R)-2-{[(5Sa)-5-{3-chloro-2-methyl-4-[2-(4-methylpiperazin-1-yl)ethoxy]phenyl}-6-(furan-2-yl)thieno[2,3-d]pyrimidin-4-yl]oxy}-3-{2-[(6-phenylpyrimidin-4-yl)methoxy]phenyl}propanoic acid]: the IC50 on Mcl-1 protein (setting [2]) amounted to 3.7e-09 M; in test [1] it was 0.049 µM.

With `Cc1c(-c2c(-c3ccc(F)cc3)sc3ncnc(OC(Cc4ccccc4OCc4ccnc(-c5ccccc5)n4)C(=O)O)c23)ccc(OCCN2CCN(C)CC2)c1Cl` [Example 29, (2R)-2-{[(5Sa)-5-{3-chloro-2-methyl-4-[2-(4-methylpiperazin-1-yl)ethoxy]phenyl}-6-(4-fluorophenyl)thieno[2,3-d]pyrimidin-4-yl]oxy}-3-{2-[(2-phenylpyrimidin-4-yl)methoxy]phenyl}propanoic acid], the 50% inhibitory concentration (IC50) was 3.3e-09 M on Mcl-1 protein (setting [2]) and 0.007 µM in test [1] (Homo sapiens, NCI-H929, 48 h).

Take `COc1ccc(Cl)cc1CC(Oc1ncnc2sc(-c3ccc(Cl)o3)c(-c3ccc(OCCN4CCN(C)CC4)c(Cl)c3C)c12)C(=O)O` [Example 714, (2R)-2-{[6-(5-chlorofuran-2-yl)-(5Sa)-5-{3-chloro-2-methyl-4-[2-(4-methylpiperazin-1-yl)ethoxy]phenyl}thieno[2,3-d]pyrimidin-4-yl]oxy}-3-(5-chloro-2-methoxyphenyl)propanoic acid]: the half-maximal inhibitory concentration (IC50) stood at 3.4e-08 M at Mcl-1 protein (setting [3]) and 0.188 µM in test [1] (Homo sapiens, NCI-H929, 48 h).

As to `CCCCn1nccc1COc1ccccc1CC(Oc1ncnc2sc(-c3ccc(OCCN4CCOCC4)cc3)c(-c3ccc(OCCN4CCN(C)CC4)c(Cl)c3C)c12)C(=O)O` [Example 616, (2R)-3-{2-[(1-butyl-1H-pyrazol-5-yl)methoxy]phenyl}-2-[((5Sa)-5-{3-chloro-2-methyl-4-[2-(4-methylpiperazin-1-yl)ethoxy]phenyl}-6-{4-[2-(morpholin-4-yl)ethoxy]phenyl}thieno[2,3-d]pyrimidin-4-yl)oxy]propanoic acid], the half-maximal inhibitory concentration (IC50) stood at 4e-09 M at Mcl-1 protein (setting [3]) and 0.07 µM in test [1] (Homo sapiens, NCI-H929, 48 h).
